In US8883782B2, “Spiro-tetracyclic ring compounds as beta-secretase modulators and methods of use” (Amgen Inc., priority 2010, dated 2014):
Where two headings read alike, the source gives them in different places.

Key:
[1] = target: Beta Secretase enzyme (BACE) (Homo sapiens, UniProt P56817); experiment: In vitro enzymatic BACE FRET (fluorescence resonance energy transfer) assay; type: biochemical
Summary of the method: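 Enzyme activity was measured at pH 4.2 (0.05 M acetate, 10% DMSO final, 100 uM genapol) by cleavage of a 50 nM quenched fluorogenic peptide. After one hour, Tris was added to neutralise the pH and fluorescence was recorded.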

[2] = test system: Aβ40 in conditioned medium of cells stably expressing Amyloid Precursor Protein (APP); experiment: In vitro BACE cell-based assay (Aβ40 in conditioned medium, sandwich ELISA)
Summary of the method: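 Secreted Aβ40 is captured with pAb40 and detected with biotinylated 6E10, read by europium time-resolved fluorescence. IC50 comes from percent inhibition versus concentration.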

[3] = average IC50, enzyme assay, read-out: BACE 1 FRET assay
[4] = Homo sapiens, HEK293, average IC50, read-out: HEK cell assay
[5] = Homo sapiens, HEK293, average IC50, HEK cells, read-out: HEK cell assay

Sequence of Beta Secretase enzyme (BACE) (P56817 46-501, species assumed): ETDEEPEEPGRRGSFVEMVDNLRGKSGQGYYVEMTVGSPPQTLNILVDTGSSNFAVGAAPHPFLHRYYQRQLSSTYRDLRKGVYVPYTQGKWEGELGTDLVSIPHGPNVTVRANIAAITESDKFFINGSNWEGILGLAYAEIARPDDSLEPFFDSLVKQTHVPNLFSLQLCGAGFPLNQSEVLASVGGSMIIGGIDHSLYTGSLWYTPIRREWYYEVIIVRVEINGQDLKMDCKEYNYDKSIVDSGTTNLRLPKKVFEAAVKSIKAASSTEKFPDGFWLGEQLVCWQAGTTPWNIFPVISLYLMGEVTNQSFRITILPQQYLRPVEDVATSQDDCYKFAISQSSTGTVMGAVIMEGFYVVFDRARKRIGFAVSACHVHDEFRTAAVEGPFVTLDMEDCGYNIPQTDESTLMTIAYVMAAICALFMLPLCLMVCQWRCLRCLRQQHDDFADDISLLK

CC1(C)C=C(c2cc3c(cn2)Oc2ccc(-c4cncnc4)cc2[C@@]32COC(N)=N2)CCO1 [Example 543, (5S)-3-(6,6-dimethyl-3,6-dihydro-2H-pyran-4-yl)-7-(5-pyrimidinyl)spiro[chromeno[2,3-c]pyridine-5,4′-[1,3]oxazol]-2′-amine] was tested, and the IC50 [1, 3] was 0.0016 µM and the IC50 ([2]; average IC50, HEK cells, read-out: HEK cell assay) was 0.0246 µM.
For CC1(C)C=C(c2cnc3c(c2)[C@]2(COC(N)=N2)c2c(ccc(-c4cccnc4F)c2F)O3)CCO1 [Example 348, (5R)-3-(6,6-dimethyl-3,6-dihydro-2H-pyran-4-yl)-6-fluoro-7-(2-fluoro-3-pyridinyl)spiro[chromeno[2,3-b]pyridine-5,4′-[1,3]oxazol]-2′-amine], the IC50 [1, 3] was 0.0008 µM and the IC50 [2, 4] was 0.0088 µM.
In the case of Cn1ccc(-c2cnc3c(c2)[C@]2(COC(N)=N2)c2cc(C#CC(C)(C)C)ccc2O3)n1 [Example 180, (5S)-7-(3,3-dimethyl-1-butyn-1-yl)-3-(1-methyl-1H-pyrazol-3-yl)spiro[chromeno[2,3-b]pyridine-5,4′-[1,3]oxazol]-2′-amine], the IC50 [1, 3] is reported as 0.0495 µM and the IC50 [2, 4] is reported as 0.165 µM.
COc1nc(Cl)cc2c1Oc1ccc(-c3cccnc3)cc1[C@@]21COC(N)=N1 [Example 830, (5S)-3-chloro-1-methoxy-7-(3-pyridinyl)spiro[chromeno[2,3-c]pyridine-5,4′-[1,3]oxazol]-2′-amine] gave an IC50 [1, 3] of 0.469 µM and an IC50 [2, 4] of no less than 10 µM.
Molecule Cc1ccc(-c2ccc3c(c2)[C@@]2(COC(N)=N2)c2cc(C4=CCOCC4)ncc2O3)c(F)n1 [Example 253, (5S)-3-(3,6-dihydro-2H-pyran-4-yl)-7-(2-fluoro-6-methyl-3-pyridinyl)spiro[chromeno[2,3-c]pyridine-5,4′-[1,3]oxazol]-2′-amine] has an IC50 [1, 3] of 0.036 µM and an IC50 [2, 4] of 0.32 µM.
In the case of NC1=N[C@@]2(CO1)c1cc(-c3c(F)ccnc3F)ccc1Oc1cnc([C@@H]3CCCCO3)cc12 [Example 915, (5S)-7-(2,4-difluoro-3-pyridinyl)-3-((2S)-tetrahydro-2H-pyran-2-yl)spiro[chromeno[2,3-c]pyridine-5,4′-[1,3]oxazol]-2′-amine], the IC50 [1, 3] is reported as 0.0025 µM and the IC50 [2, 5] is reported as 0.023 µM.
CC(C)(C)C#Cc1cc2c(nc1F)Oc1ccc(-c3cccnc3F)cc1C21COC(N)=N1 (centres unmarked) [Example 148, 3-(3,3-dimethyl-1-butyn-1-yl)-2-fluoro-7-(2-fluoro-3-pyridinyl)spiro[chromeno[2,3-b]pyridine-5,4′-[1,3]oxazol]-2′-amine] gave an IC50 [1, 3] of 0.0007 µM and an IC50 [2, 4] of 0.0214 µM.
NC1=N[C@]2(CO1)c1cc(-c3cncc(F)c3)c(F)cc1Oc1ncc(C3=CCOCC3)cc12 [Example 648, (5R)-3-(3,6-dihydro-2H-pyran-4-yl)-8-fluoro-7-(5-fluoro-3-pyridinyl)spiro[chromeno[2,3-b]pyridine-5,4′-[1,3]oxazol]-2′-amine] was tested, and the IC50 [1, 3] was 0.33 µM and the IC50 [2, 5] was 2.79 µM.
For Cc1cnccc1-c1cc2c(cn1)Oc1ccc(-c3cccnc3F)cc1[C@@]21COC(N)=N1 [Example 246, (5S)-7-(2-fluoro-3-pyridinyl)-3-(3-methyl-4-pyridinyl)spiro[chromeno[2,3-c]pyridine-5,4′-[1,3]oxazol]-2′-amine], the IC50 [1, 3] was 0.0542 µM and the IC50 [2, 4] was 0.291 µM.
COCC1SC(N)=N[C@@]12c1cc(-c3cccnc3F)ccc1Oc1cnc(-c3ccnc(F)c3)cc12 (stereo partly drawn) [Example 1094, (5R)-7-(2-fluoro-3-pyridinyl)-3-(2-fluoro-4-pyridinyl)-5′-(methoxymethyl)spiro[chromeno[2,3-c]pyridine-5,4′-[1,3]thiazol]-2′-amine] gave an IC50 [1, 3] of 0.0043 µM and an IC50 [2, 5] of 0.128 µM.
In the case of CC1(C)CCN(c2cnc3c(c2)[C@]2(COC(N)=N2)c2cc(C#CC4CC4)ccc2O3)C1 [Example 182, (5S)-7-(cyclopropylethynyl)-3-(3,3-dimethyl-1-pyrrolidinyl)spiro[chromeno[2,3-b]pyridine-5,4′-[1,3]oxazol]-2′-amine], the IC50 [1, 3] is reported as 0.0031 µM and the IC50 [2, 4] is reported as 0.022 µM.
CC#Cc1cncc(-c2ccc3c(c2)[C@@]2(COC(N)=N2)c2cc(C4=CCCOC4)cnc2O3)c1 [Example 950, (5S)-3-(5,6-dihydro-2H-pyran-3-yl)-7-(5-(1-propyn-1-yl)-3-pyridinyl)spiro[chromeno[2,3-b]pyridine-5,4′-[1,3]oxazol]-2′-amine] showed an IC50 [1, 3] of 0.0003 µM and an IC50 [2, 5] of 0.002 µM.
CC#Cc1cncc(-c2ccc3c(c2)[C@@]2(COC(N)=N2)c2cc(C#CC(C)(C)O)cnc2O3)c1 [Example 945, 4-((5S)-2′-amino-7-(5-(1-propyn-1-yl)-3-pyridinyl)spiro[chromeno[2,3-b]pyridine-5,4′-[1,3]oxazol]-3-yl)-2-methyl-3-butyn-2-ol] showed an IC50 [1, 3] of 0.0008 µM and an IC50 [2, 5] of 0.002 µM.
NC1=N[C@@]2(CO1)c1cc(-c3cccnc3F)ccc1Oc1c2cc(C2=CCOCC2)c(F)c1F [Example 1011, (4S)-2′-(3,6-dihydro-2H-pyran-4-yl)-3′,4′-difluoro-7′-(2-fluoro-3-pyridinyl)spiro[1,3-oxazole-4,9′-xanthen]-2-amine] showed an IC50 [1, 3] of 0.0005 µM and an IC50 [2, 4] of 0.017 µM.
Molecule NC1=N[C@@]2(CO1)c1cc(-c3cnccc3F)ccc1Oc1c(F)cc(C3=CCOCC3)cc12 [Example 1044, (4S)-2′-(3,6-dihydro-2H-pyran-4-yl)-4′-fluoro-7′-(4-fluoro-3-pyridinyl)spiro[1,3-oxazole-4,9′-xanthen]-2-amine] has an IC50 [1, 3] of 0.0005 µM and an IC50 [2, 4] of 0.018 µM.
NC1=N[C@@]2(CO1)c1cc(-c3cc(Cl)ccc3F)ccc1Oc1ncc(C3=CCCOC3)cc12 [Example 172, (5S)-7-(5-chloro-2-fluorophenyl)-3-(5,6-dihydro-2H-pyran-3-yl)spiro[chromeno[2,3-b]pyridine-5,4′-[1,3]oxazol]-2′-amine] gave an IC50 [1, 3] of 0.0004 µM and an IC50 [2, 4] of 0.0053 µM.
CC1(C)C[C@@H](c2cnc3c(c2)[C@]2(COC(N)=N2)c2cc(-c4cncc(Cl)c4)ccc2O3)CCO1 [Example 466, (5S)-7-(5-chloro-3-pyridinyl)-3-((4S)-2,2-dimethyltetrahydro-2H-pyran-4-yl)spiro[chromeno[2,3-b]pyridine-5,4′-[1,3]oxazol]-2′-amine] gave an IC50 [1, 3] of 0.0021 µM and an IC50 [2, 5] of 0.0056 µM.
CC1(C#Cc2cnc3c(c2)[C@]2(COC(N)=N2)c2cc(-c4cnccc4F)ccc2O3)COC1 [Example 104, (S)-7-(4-fluoropyridin-3-yl)-3-((3-methyloxetan-3-yl)ethynyl)-5′H-spiro[chromeno[2,3-b]pyridine-5,4′-oxazol]-2′-amine] was tested, and the IC50 [1, 3] was 0.0011 µM and the IC50 [2, 4] was 0.012 µM.
For N#Cc1cccc(-c2cc3c(cn2)Oc2c(F)cc(C4=CCOCC4)cc2[C@]32COC(N)=N2)c1 [Example 308, 3-((5S)-2′-amino-7-(3,6-dihydro-2H-pyran-4-yl)-9-fluorospiro[chromeno[2,3-c]pyridine-5,4′-[1,3]oxazol]-3-yl)benzonitrile], the IC50 [1, 3] was 0.0093 µM and the IC50 [2, 4] was 0.117 µM.
In the case of CC#Cc1cncc(-c2ccc3c(c2)[C@@]2(COC(N)=N2)c2cc(-c4ccncc4)nc(F)c2O3)c1 [Example 739, (5S)-1-fluoro-7-(5-(1-propyn-1-yl)-3-pyridinyl)-3-(4-pyridinyl)spiro[chromeno[2,3-c]pyridine-5,4′-[1,3]oxazol]-2′-amine], the IC50 [1, 3] is reported as 0.0005 µM and the IC50 [2, 4] is reported as 0.005 µM.
For N#CC1CN(c2cc3c(cn2)Oc2ccc(-c4cccnc4)cc2[C@@]32COC(N)=N2)C1 [Example 410, 1-((5S)-2′-amino-7-(3-pyridinyl)spiro[chromeno[2,3-c]pyridine-5,4′-[1,3]oxazol]-3-yl)-3-azetidinecarbonitrile], the IC50 [1, 3] was 0.0287 µM and the IC50 [2, 5] was 0.128 µM.
For CC(C)(C)COc1ccc2c(c1)[C@]1(COC(N)=N1)c1cc(-c3cncnc3)c(F)cc1O2 [Example 512, (4S)-7′-(2,2-dimethylpropoxy)-3′-fluoro-2′-(5-pyrimidinyl)spiro[1,3-oxazole-4,9′-xanthen]-2-amine], the IC50 [1, 3] was 0.103 µM and the IC50 [2, 5] was 0.378 µM.
For Cc1cc(-c2ccc3c(c2)[C@@]2(COC(N)=N2)c2cc(-c4cccnc4)ncc2O3)cnc1F [Example 230, (5S)-7-(6-fluoro-5-methyl-3-pyridinyl)-3-(3-pyridinyl)spiro[chromeno[2,3-c]pyridine-5,4′-[1,3]oxazol]-2′-amine], the IC50 [1, 3] was 0.0081 µM and the IC50 [2, 4] was 0.0363 µM.
In the case of NC1=N[C@@]2(CO1)c1cc(-c3cnccc3F)ccc1Oc1ncc(C3=CCOCC3)cc12 [Example 358, (5S)-3-(3,6-dihydro-2H-pyran-4-yl)-7-(4-fluoro-3-pyridinyl)spiro[chromeno[2,3-b]pyridine-5,4′-[1,3]oxazol]-2′-amine], the IC50 [1, 3] is reported as 0.0026 µM and the IC50 [2, 4] is reported as 0.0246 µM.
Work on COc1ncc(-c2ccc3c(c2)[C@@]2(COC(N)=N2)c2cc(N4CCC(F)(F)CC4)ncc2O3)cn1 [Example 419, (5S)-3-(4,4-difluoro-1-piperidinyl)-7-(2-methoxy-5-pyrimidinyl)spiro[chromeno[2,3-c]pyridine-5,4′-[1,3]oxazol]-2′-amine] yielded an IC50 [1, 3] of 0.172 µM and an IC50 [2, 5] of 0.602 µM.
CC(C)(C)C#Cc1ccc2c(c1)[C@@]1(COC(N)=N1)c1cc(-c3ccnc(F)c3)ncc1O2 [Example 162, (5S)-7-(3,3-dimethyl-1-butyn-1-yl)-3-(2-fluoro-4-pyridinyl)spiro[chromeno[2,3-c]pyridine-5,4′-[1,3]oxazol]-2′-amine] was tested, and the IC50 [1, 3] was 0.023 µM and the IC50 [2, 4] was 0.775 µM.
For COc1cc(F)c2c(c1)[C@]1(COC(N)=N1)c1cc(-c3cncnc3)c(F)cc1O2 [Example 556, (4S)-3′,5′-difluoro-7′-methoxy-2′-(5-pyrimidinyl)spiro[1,3-oxazole-4,9′-xanthen]-2-amine], the IC50 [1, 3] was 0.0089 µM and the IC50 [2, 5] was 0.145 µM.
In the case of NC1=N[C@@]2(CS1)c1cc(-c3cccnc3F)ccc1Oc1cnc(C3=CCOCC3)cc12 [Example 590, (5S)-3-(3,6-dihydro-2H-pyran-4-yl)-7-(2-fluoro-3-pyridinyl)spiro[chromeno[2,3-c]pyridine-5,4′-[1,3]thiazol]-2′-amine], the IC50 ([1]; BACE 1 FRET assay (uM)) is reported as 0.0007 µM and the IC50 ([2]; Homo sapiens, HEK293, read-out: HEK cell assay (uM), average IC50, HEK cells) is reported as 0.0093 µM.
